{"source": "patent US11655254B2", "about": "“Substituted piperazines as BTK inhibitors” (HUTCHISON MEDIPHARMA LIMITED, priority 2020, dated 2023)", "key": {"[1]": {"tested_on": "B cell activation in rat whole blood", "test": "Determination of B cell activity in whole blood of rats (anti-rat IgD induced)", "format": "cell-based", "conditions": "anti-rat immunoglobulin D, 18 hours, flow cytometry B220/CD86, read-out: IC50 value, inhibiting B cell activation in rat whole blood", "method": "In the determination of the compound activity, the collected peripheral whole blood of rat was added to a 96 well plate at 80 μL/well and cultured in a 5% CO2, 37° C. cell incubator. […]\nOn the second day, the 96-well plates were taken out and the flow cytometry antibody mixture (the final concentration of anti-rat B220PE antibody was 1 μg/mL and the final concentration of anti-rat CD86 FITC antibody was 1 μg/mL) diluted with PBS was added to each well of plate, which were incubated for 30 minutes in the dark, and then 50 […] of blood from each well was pipetted to the freshly prepared 500 μL of lysis buffer to lyse red blood cells. The plates were shaken for 20 minutes, centrifuged to remove the supernatant, then washed, fixed, and detected on a flow cytometer.\nThe B cell activation in the sample was determined by flow dyeing method. […]\nThe inhibition ratio is calculated as follows: inhibition ratio (%)=100%−{(treating well for the test compound−negative control treating well)/(control treating well for anti-rat immunoglobulin D−negative control treating well)}×100%, wherein, […]"}, "[2]": {"tested_on": "CIA (collagen induced arthritis) rats", "test": "Rat arthritis model induced by type II collagen (CIA)", "format": "in vivo", "conditions": "compared with vehicle control group", "method": "An appropriate amount of bovine type II collagen (CII, Chondrex (Redmond, Wash., USA), Cat #20021) was weighed and dissolved in 0.1 mole of acetic acid (SPGC Sinopharm Chemical Reagent Co., Ltd (Shanghai, P.R. China), Cat #: 10000218.), which was formulated into a solution with a concentration of 6 mg/mL, stirred at 4° C. overnight, and added with an equal volume of Freund's incomplete adjuvant (Sigma-Aldrich.(St. Louis, Mo., USA), Cat #: SLBW0366.), fully emulsified to prepare an emulsion with a CII concentration of 3 mg/mL.\nFemale Lewis rats were purchased from Beijing Vital River Laboratory Animal Technology Co., Ltd. (certificate number 20200928Aazz0619000579, initial body weight of 110-130 grams), and 6 rats were randomly selected as a normal group; and all of the remaining rats were immunized. In the first immunization on day 0, the rats except those in the normal group were anesthetized with isoflurane (Hebei Yipin Pharmaceutical Co., Ltd., Lot: C002170601.), and then disinfected with 75% alcohol, and 0.2 mL of emulsion was injected intradermally at the base of the tail thereof. A second challenge was carried out on day 7, and 0.2 mL of emulsion was intradermally injected using the same method. Once the animals developed symptoms on day 10, the incidence conditions thereof were closely monitored.\nAfter grouping, the normal group was not administered, and the rats in the other groups were administered with the control vehicle, 0.25 mg/kg and 4 mg/kg of the reference GDC-0853, and each dose of compound 1 orally once a day until the end of the experiment.\nThe paw volume was measured on day 10 after immunization, and the left and right hind paw volumes (V) were measured every day after the paw volume increase was detected.\nThe arthrosis paw volumes of the left and right hind limbs of each animal were measured, and the average paw volume (APV) was calculated according to the following formula: Average paw volume APV=(Vleft+Vright)/2\nThe average arthrosis paw volume of each animal before administration was used as the baseline (or considered 100% inhibition of inflammation). […]\nThe area under the curve (AUC) of the average paw volume swelling is the area under the curve of the arthrosis score swelling calculated by the trapezoid method, and the calculation formula is: AUCAPS=1/2×(APSd1+APSd2)×(d2−d1)+1/2×(APSd2+APSd3)×(d3−d2)+ . . . +1/2×(APSdn+APSd(n-1))×(dn−dn-1). […]\nED50 is calculated by XLfit software according to the AUC inhibition ratio of the area under the curve of the average paw volume swelling. […]"}}}
{"compound": "C[C@H]1CN(C2COC2)C[C@H](C)N1c1ccc(Nc2cc(-c3ccnc(-n4ccn5c6c(cc5c4=O)CC(C)(C)C6)c3CO)cn(C)c2=O)nc1", "note": "[Compound 1, 2-(5-((5-((2S,6S)-2,6-dimethyl-4-(oxetan-3-yl)piperazin-1-yl)pyridin-2-yl)amino)-3′-(hydroxymethyl)-1-methyl-6-oxo-1,6-dihydro-[3,4′-bipyridin]-2′-yl)-7,7-dimethyl-7,8-dihydro-2H-cyclopenta[4,5]pyrrolo[1,2-a]pyrazin-1(6H)-one]", "values": [{"measurement": "IC50", "setting": "[1]", "result": 1, "unit": "nM"}, {"measurement": "effect on paw volume", "setting": "[2]; 0.25 mg/kg oral QD", "result": "significantly increase the continuous improvement of paw volume swelling"}, {"measurement": "effect on paw volume", "setting": "[2]; 4 mg/kg oral QD", "result": "significantly increase the continuous improvement of paw volume swelling"}]}
